{"source": "patent US10004809B2", "about": "“Precise delivery of therapeutic agents to cell mitochondria for anti-cancer therapy” (UNIVERSITY OF GEORGIA RESEARCH FOUNDATION, INC., priority 2013, dated 2018)", "system": "PC3 cells", "experiment": "Annexin V/PI apoptosis detection by flow cytometry", "format": "cell-based, Human", "conditions": "50 μM", "description": "In order to determine whether the enhanced activity of MITO-DCA upon targeting this compound to the mitochondria of cells was due to apoptosis rather than necrosis, an ALEXA FLUOR™ 488-Annexin-V and propidium iodide (PI) cell staining in PC3 and MSC cells was carried out and data were analyzed using flow cytometry (FIG. 4B). As controls, etoposide treated cells were used as early apoptosis population and H2O2 treated cells were marked as late apoptotic or necrotic population. […] There were no late apoptotic or necrotic cells observed with these compounds.\nPC3 and MSC cells were seeded at a density of 1×10^6 cells/mL on each well of a six well plate and allowed to grow overnight. Cells were treated with 50 μM Na-DCA, 150 μM TPP-DCA, and 150 μM MITO-DCA for 12 h at 37° C. As positive controls, etoposide (100 μM, incubation time: 12 h) for apoptosis and H2O2 (1 mM, incubation time: 45 min) for necrosis were used. The cells were trypsinized, repeatedly washed, and centrifuged at 1,800 RPM for 3 min, and the supernatants were discarded. Cell density was determined and cells were resuspended in 1× annexin-binding buffer to ˜1×10^6 cells/mL preparing a sufficient volume to have 100 µL per assay. To 100 μL of cell suspension, 5 μL ALEXA FLUOR™ 488 annexin V and 1 µL 100 μg/mL PI working solution were added and incubated for 15 min at room temperature. After the incubation period, 400 μL 1× annexin-binding buffer was added to each sample, samples were gently mixed keeping the samples on ice and the samples were analyzed on the flow cytometer immediately."}
{"compound": "O=C(CCCCC[P+](c1ccccc1)(c1ccccc1)c1ccccc1)NC(COC(=O)C(Cl)Cl)(COC(=O)C(Cl)Cl)COC(=O)C(Cl)Cl.[Br-]", "note": "[MITO-DCA]", "values": [{"measurement": "Apoptosis (annexin V/PI)", "value": "complete early apoptosis"}]}
